The record followed here is US4169015A, “Novel chromogenic thrombin substrates” (AB Kabi, priority 1975, dated 1979).

One data set relates to thrombin. The experiment in a line: Relative reaction velocity between thrombin and chromogenic substrate (p-nitroaniline release, 405 nm). The class given is biochemical. The conditions noted are these: for Rel. reaction velocity: thrombin 0.4 NIH/ml, substrate 0.1 μmol/ml, relative, S-2160 = 100. The text has this: The substrates prepared according to the examples are used for determination of thrombin as stated below.
The determination principle is based upon the fact that the splitting product formed by enzymatic hydrolysis has a UV-spectrum which is essentially different from that of the substrate. Thus, the substrate according to Example X, H--D--Phe--Pip--Arg--pNA, has an absorption maximum at 315 nm and the molar extinction coefficient of 12500. At 405 nm the absorption of the substrate has almost completely stopped. p-Nitroaniline, split off from the substrate during the enzymatic hydrolysis, has an absorption maximum at 380 nm and a molar extinction coefficient of 13200 which at 405 nm only had decreased to 9620. By spectrophotometrical determination at 405 nm it is thus possible to easily follow the amount of p-nitroaniline formed, which is proportional to the degree of the enzymatic hydrolysis which in its turn is determined by the active amount of thrombin. For other substrates according to the invention rather identical conditions exist and for this reason the determinations have consistently been made at 405 nm.
They react 4 times more rapidly with thrombin than the previously best substrate, S-2160, and are further about 10 times more soluble in water than S-2160.
Relative reactions velocity between thrombin (0.4 NIH/ml) and substrate (0.1 μmol/ml).

A short description of another data set: Solubility in water. The class given is physicochemical.
Where [1] appears, read: water, Table I, in H2O, read-out: Solubility in H2O.

Structures are written as SMILES. Values after ≈ are worked out from the molar mass of the structure shown. Like-named read-outs stand apart in the source and are kept apart here. Where a SMILES comes first, the peptide text is derived from it. The star is where a group is joined. pNA = O=[N+]([O-])c1ccc(N*)cc1; Bz = O=C(c1ccccc1)*

`N=C(N)NCCC[C@H](NC(=O)[C@@H]1CCCN1C(=O)[C@H](N)Cc1ccccc1)C(=O)Nc1ccc([N+](=O)[O-])cc1` [VIII, H--D--Phe--Pro--Arg--pNA.2HCl]: the Rel. reaction velocity in the data set with thrombin amounted to 400. Besides, the solubility in the data set “Solubility in water” (setting [1]) turned out to be 3000 µg/mL.

In the data set on thrombin, `N=C(N)NCCC[C@H](NC(=O)[C@@H]1CCCCN1C(=O)[C@@H](N)Cc1ccccc1)C(=O)Nc1ccc([N+](=O)[O-])cc1` [XI, H--Phe--Pip--Arg--pNA.2HCl] registered a Rel. reaction velocity of 9. In addition, the solubility in the data set “Solubility in water” (setting [1]) is 1000 µg/mL.

With `CC(C)[C@H](NC(=O)[C@H](Cc1ccccc1)NC(=O)c1ccccc1)C(=O)N[C@@H](CCCNC(=N)N)C(=O)Nc1ccc([N+](=O)[O-])cc1` [Example S-2160, Bz-Phe-Val-Arg-pNA, reference compound] (Bz-Phe-Val-Arg-pNA), the Rel. reaction velocity in the data set with thrombin was determined as 100. Besides, the solubility in the data set “Solubility in water” (medium not stated, read-out: solubility) was determined as 1000 µg/mL (≈ 1550 µM); in the data set “Solubility in water” (setting [1]) it was 100 µg/mL (≈ 155 µM). For the same compound, the “solubility compared with S-2160 (in words)” value in “Solubility in water” (versus S-2160) was “considerably more soluble”.

On to `N=C(N)NCCC[C@H](NC(=O)[C@@H]1CCCN1C(=O)[C@@H](N)Cc1ccccc1)C(=O)Nc1ccc([N+](=O)[O-])cc1` [IX, H--Phe--Pro--Arg--pNA.2HCl], for which, in the data set on thrombin, the Rel. reaction velocity was 15. In “Solubility in water” (setting [1]), the solubility stood at 1000 µg/mL.

`CC(C)[C@H](NC(=O)[C@@H](N)Cc1ccccc1)C(=O)N[C@@H](CCCNC(=N)N)C(=O)Nc1ccc([N+](=O)[O-])cc1` [B, H-Phe-Val-Arg-pNA, reference compound] (H-Phe-Val-Arg-pNA) registered a Rel. reaction velocity in the data set with thrombin of 3. Also, in the data set with thrombin (versus S-2160 (benzoyl replaced with H)), the “decrease of the velocity with which thrombin splits the substrate” value is reported as “about 30 times”. Further, the solubility in “Solubility in water” (setting [1]) is 1000 µg/mL (≈ 1850 µM).

`N=C(N)NCCC[C@H](NC(=O)[C@@H]1CCCCN1C(=O)[C@H](N)Cc1ccccc1)C(=O)Nc1ccc([N+](=O)[O-])cc1` [Example X, H--D--Phe--Pip--Arg--pNA.2HCl]: the Rel. reaction velocity in the data set with thrombin turned out to be 420. Besides, the solubility in the data set “Solubility in water” (setting [1]) worked out at 3000 µg/mL.
